Measurements taken from patent US11779569B2, “Methods and compositions for treating hyperhidrosis” (THERAVIDA, INC., priority 2016, dated 2023).
Values belong to the molecule of their own block, whether it stands above or below them.

Assays:
[1] = tested on: subjects with primary focal hyperhidrosis; test: Hyperhidrosis Disease Severity Scale (HDSS), crossover clinical study; format: in vivo, human; conditions: BID by mouth, 21-day treatment period; 1 point drop=50% reduction in sweating, 2 points=80% reduction
Text: (§1) The clinical study was a randomized, double blind, placebo-controlled, crossover study of approximately 18 subjects. Following qualification, subjects were randomized to one of 6 groups/sequences during which they received each of the three study treatments in sequential treatment periods. Each 21-day double-blind study treatment period was preceded by an at least 7-day washout period. Subsequent study treatment assignments were via the sequential three-way crossover design prescribed in that group. After completing the final study treatment period or early study treatment discontinuation, all subjects completed an end of study visit (approximately 14 days after the last study treatment administration. FIG. 5 illustrates a scheme of the clinical study design.
Subjects were randomized to 1 of 6 groups/sequences of study treatment administration. […]
(§2) Efficacy and safety analyses were conducted on study treatment (THVD-102 [7.5/7.5], oxybutynin or placebo). […] There was a statistically significant effect in each of three measures of efficacy: • 1) Hyperhidrosis Disease Severity Scale (p=0.03-0.05) • THVD-102 [7.5/7.5]=1.06±1.11; Oxybutynin=1.33±1.03; placebo=0.5±0.62 1 point drop=50% reduction in sweating; 2 points=80% reduction • 2) Hyperhidrosis Visual Analog Scale (p=0.01) • 3) Hyperhidrosis Visual Quantification Scale (p=0.005-0.07)

[2] = tested on: subjects with primary focal hyperhidrosis; test: Dry Mouth Visual Analog Scale (DMVAS), crossover clinical study; format: in vivo, human; conditions: 100 mm scale, 100 = worst; PP; n 18
Text: as §1, with “After completing the final study treatment period or early study treatment discontinuation, all subjects completed an end of study visit (approximately 14 days after the last study treatment administration. FIG. 5 illustrates a scheme of the clinical study design.” left out
The DMVAS will be used to quantify the severity of dry mouth experienced by subjects during this clinical trial. […] The score was determined by measuring the distance from the left anchor to where the line that the subject drew bisected the (100 mm) scale. The distance was measured and recorded in millimeters (mm). […]
as §2

[3] = tested on: subjects with primary focal hyperhidrosis; test: Dry Mouth Questions (Dry Mouth Severity/Incidence Questionnaire), crossover clinical study; format: in vivo, human; conditions: PP, n 18
Text: as §1
The active control of oxybutynin 7.5 mg is the comparator for THVD-102 [7.5/7.5] for the anti-muscarinic induced dry mouth symptom incidence and severity.
Subjects were randomized to 1 of 6 groups/sequences of study treatment administration. Each sequence included sequential crossover assignment to a 21-day treatment period of: • oxybutynin 7.5 mg BID alone by mouth; • THVD-102 [7.5/7.5] (oxybutynin 7.5 mg in combination with pilocarpine 7.5 mg) BID by mouth; and • placebo BID by mouth.
Dry Mouth Questions (Dry Mouth Severity/Incidence Questionnaire)
At the end of the end of each treatment period, investigational site staff questioned subjects regarding the incidence of dry mouth. This assessment occurred after the subject had completed the DMVAS and DTVAS and included questions relating to the incidence and severity of dry mouth symptoms and remedial actions taken. The investigator was instructed to query subjects in a non-judgmental, non-leading manner using the following script (© 2012, Thomas Tremblay and Robin Allgren) to elicit the incidence of dry mouth: • Have you had any dry mouth since starting (the most recent) study treatment? (at completion of Treatment Periods 1, 2, and 3)
as §2, with “placebo). Continuous data were summarized by using descriptive statistics (mean, SD, median, min, max) and categorical data were summarized in frequency tables. Using Day 1 of the first and each subsequent Treatment Period as baselines for measuring treatment effect, a Wilcoxon signed-rank test were performed.” for “placebo).”

[4] = Jacobs 1996; Cheshire and Fealey 2008; Salagen product insert; cited from earlier work

Dry mouth Visual Analog Scale, Change D0-D21 [2]: 43.9 ± 27.9 mm
SMILES: CCN(CC)CC#CCOC(=O)C(O)(c1ccccc1)C1CCCCC1 (stereo not shown) [Oxybutynin, 4-Diethylaminobut-2-ynyl 2-cyclohexyl-2-hydroxy-2-phenylethanoate]
Hyperhidrosis Disease Severity Scale [1]: 1.33±1.03
Moderate/Severe dry mouth, number of subjects [3]: 13
Moderate/Severe dry mouth, percent of subjects [3]: 72%
None/Mild dry mouth, number of subjects [3]: 5
None/Mild dry mouth, percent of subjects [3]: 27%

SMILES: CC[C@@H]1C(=O)OC[C@@H]1Cc1cncn1C [pilocarpine, (3S,4R)-3-Ethyl-4-((1-methyl-1H-imidazol-5-yl)methyl)dihydrofuran-2(3H)-one]
effect on sweating [4]: known to cause an increase in sweating
